Source: patent US5442101A, “Methylenebisphosphonic acid derivatives” (Leiras Oy, priority 1990, dated 1995)

System: parathyroid hormone stimulated bone resorption in mouse calvaria
Assay: parathyroid hormone stimulated bone resorption inhibition activity in vitro in mouse calvaria (antiresorptive activity)
Assay type: cell-based
Conditions: PTH stimulated

Structure (SMILES) | inhibition at 100 µM [%] | Antiresorptive activity, Inhibition of resorption (%) (100 μM)
O=P(O)(O)C(Cl)(Cl)P(=O)(O)O [Clodronate, reference compound] | 43 | –
CCN(CC)P(=O)(O)C(Cl)(Cl)P(=O)(O)N(CC)CC [(dichloromethylene)bisphosphonic acid P,P'-bis(diethylamide)] | 38 | –
CCN(CC)P(=O)(O)C(Cl)(Cl)P(=O)(O)O [(dichloromethylene)bisphosphonic acid mono(diethylamide)] | 43 | –
CCN(CC)P(=O)(OC(C)C)C(Cl)(Cl)P(=O)(O)O (centres unmarked) [(dichloromethylene)bisphosphonic acid P-monoisopropyl ester P-mono(diethylamide)] | – | 44
CCN(CC)P(=O)(O)C(Cl)(Cl)P(=O)(N(CC)CC)N(CC)CC [(dichloromethylene)bisphosphonic acid tris(diethylamide)] | 44 | –
